Patent US20190387748A1, “COMPOSITIONS AND RELATED METHODS FOR AGRICULTURE” (priority 2017, published 2019)
“Also recorded” adds a separate entry of the source.

What was measured:
[1] = system: Acyrthosiphon pisum aphids; experiment: Aphid survival monitoring; assay type: in vivo
Source text: For each treatment, 33 aphids were placed onto each leaf. Artificial diet feeding systems were changed every 2-3 days throughout the experiment. Aphids were monitored daily for survival and dead aphids were removed from the deep petri dish housing the artificial feeding system when they were discovered.
Each treatment group received approximately the same number of individuals from each of the collection plant. For each treatment, 20 aphids were placed onto each leaf. Aphids were monitored daily for survival and dead aphids were removed when they were discovered. In addition, the developmental stage (1st, 2nd, 3rd, 4th, 5th instar, and 5R, representing a reproducing 5th instar) was determined daily throughout the experiment. Pictures of aphids were taken throughout the experiment to evaluate size differences between treatment groups.
(Vroma vicia faba from Johnny's Selected Seeds) in a climate-controlled incubator (16 h light/8 h dark photoperiod; 60±5% RH; 25±2° C.). Prior to being used for aphid rearing, fava bean plants were grown in potting soil at 24° C. with 16 h of light and 8 h of darkness. To limit maternal effects or health differences between plants, 5-10 adults from different plants were distributed among 10 two-week-old plants, and allowed to multiply to high density for 5-7 days. For experiments, first and second instar aphids were collected from healthy plants and divided into 2 different treatment groups: 1) negative control (leaf injected with water plus blue food coloring) and 2) leaf injected with 50 μg/ml rifampicin in water plus blue food coloring. Each treatment group received approximately the same number of individuals from each of the collection plants. For treatment, rifampicin stock solution (25 mg/ml in 100% methanol) was diluted to 50 μg/ml in water plus blue food coloring. The solution was then placed into a 1.5 ml Eppendorf tube with a fava bean stem perfused with the solutions and the opening of the tube was closed using parafilm. This feeding system was then placed into a deep petri dish (Fisher Scientific, Cat# FB0875711) and aphids were applied to the leaves of the plant. For each treatment, 74-81 aphids were placed onto each leaf. The feeding systems were changed every 2-3 days throughout the experiment. Aphids were monitored daily for survival and dead aphids were removed from the deep petri dish when they were discovered. In addition, the developmental stage (1st, 2nd, 3rd, 4th, 5th and 5R (5th that has reproduced) instar) was determined daily throughout the experiment.
For each treatment, 49-50 aphids were placed onto each leaf. The feeding systems were changed every 2-3 days throughout the experiment. Aphids were monitored daily for survival and dead aphids were removed from the deep petri dish when they were discovered.
For each treatment, 76-80 aphids were placed onto each leaf. The feeding systems were changed every 2-3 days throughout the experiment. Aphids were monitored daily for survival and dead aphids were removed from the deep petri dish when they were discovered.
For each treatment, 50-51 aphids were placed onto each leaf. The feeding systems were changed every 2-3 days throughout the experiment. Aphids were monitored daily for survival and dead aphids were removed from the deep petri dish when they were discovered.
For each treatment, 56-59 aphids were placed onto each leaf. The feeding systems were changed every 2-3 days throughout the experiment. Aphids were monitored daily for survival and dead aphids were removed from the deep petri dish when they were discovered.
For each treatment, 57-59 aphids were placed onto each leaf. The feeding systems were changed every 2-3 days throughout the experiment. Aphids were monitored daily for survival and dead aphids were removed from the deep petri dish when they were discovered.
For each treatment, 15-87 aphids were placed onto each leaf. Artificial diet feeding systems were changed every 2-3 days throughout the experiment.

[2] = system: Acyrthosiphon pisum aphids; experiment: Aphid fecundity (offspring production); assay type: in vivo; conditions: 10 or 100 uM pantothenol
Procedure: (§1) In addition, the developmental stage (1st, 2nd, 3rd, 4th, 5th instar) was determined daily throughout the experiment. Once an aphid reached the 4th instar stage, they were given their own artificial feeding system in a deep petri dish so that fecundity could be monitored once they reached adulthood.
For adult aphids, new nymphs were counted daily and then discarded. At the end of the experiments, fecundity was determined as the mean number of offspring produced daily once the aphid reached adulthood. Pictures of aphids were taken throughout the experiment to evaluate size differences between treatment groups.
as §1, with “5th, and 5R (5th that has reproduced)” for “5th”
For adult aphids, new nymphs were counted daily and then discarded. At the end of the experiments, fecundity was measured in two ways: 1) the mean day at which the first offspring for the treatment group was determined and 2) the mean number of offspring produced daily once the aphid reached adulthood. […]
In addition, the developmental stage (1st, 2nd, 3rd, 4th, 5th instar) was determined daily throughout the experiment. […]

[3] = system: Buchnera; experiment: qPCR of Buchnera/aphid DNA copy numbers (symbiont titer); assay type: in vivo, Buchnera aphidicola; conditions: 10 or 100 uM pantothenol, through plants; 8 days
Procedure: (§2) After 7 days of treatment, DNA was extracted from multiple aphids from each treatment group. Briefly, the aphid body surface was sterilized by dipping the aphid into a 6% bleach solution for approximately 5 seconds. Aphids were then rinsed in sterile water and DNA was extracted from each individual aphid using a DNA extraction kit (Qiagen, DNeasy kit) according to manufacturer's instructions. DNA concentration was measured using a nanodrop nucleic acid quantification, and Buchnera and aphid DNA copy numbers were measured by qPCR.
After 6 days of treatment, DNA was extracted from multiple aphids from each treatment group and qPCR for quantifying Buchnera levels was done as described in the previous Example.
as §2, with “8” for “7”
as §2, with “After 8” for “After 7”, “from the remaining” for “from multiple”, “aphids in” for “aphids from”
as §2, with “Briefly,” for “After 7 days of treatment, DNA was extracted from multiple aphids from each treatment group. Briefly,”
as §2, with “Briefly,” for “After 7 days of treatment, DNA was extracted from multiple aphids from each treatment group. Briefly,”
as §2, with “3” for “7”, “the remaining living” for “multiple”
as §2, with “After 5” for “After 7”, “from the remaining” for “from multiple”, “aphids in” for “aphids from”
At 5 days post-treatment, DNA was extracted from several aphids in each treatment group. Briefly, the aphid body surface was sterilized by dipping the aphid into a 6% bleach solution for approximately 5 seconds.

## CC(C)(CO)[C@@H](O)C(=O)NCCCO [pantothenol]
[1]; 10 or 100 uM pantothenol, through plants
  Aphid survival / mortality: increased aphid mortality; also recorded: negatively affected aphid fitness
[1]; leaf coating, 10 uM pantothenol
  Aphid survival rate: resulted in aphid death; also recorded: lower survival rates than aphids placed on coated leaves with the control solution
[2]
  Aphid reproduction: loss of reproduction
[3]
  Buchnera/aphid DNA copies: did not affect endosymbiotic Buchnera; also recorded: high ratios of Buchnera/aphid DNA copies
